Key:
[1] = system: female hooded-Lister rats; assay: Novel object recognition (NOR) task, sub-chronic PCP-induced cognitive deficit; type: in vivo, rat; settings: 0.2 mg/kg risperidone i.p.; sub-chronic PCP rats; did not reach statistical significance; FIG. 3
Text: Certain pre-clinical tests allow the observation of relatively subtle cognitive deficits in the rat that resemble cognitive symptoms in subjects with schizophrenia. The cognitive deficits observed are seen in behaviours such as working memory deficits which may be measured by recognition tasks such as the novel object recognition (NOR) paradigm. A recognition memory task allows the comparison between presented stimuli and previously stored information. Ennaceur & Delacour, Behav. Brain Res. 31: 47-59 (1988) described the NOR test in rats which was based on the differential exploration of familiar and new objects. The NOR test is a non-rewarded, ethologically relevant paradigm based on the spontaneous exploratory behaviour of rats which measures working memory. Each session consists of two trials. In the first trial, the rats are exposed to two identical objects in an open field. During the second trial, rats are exposed to two dissimilar objects, one familiar object from the first trial and one new object. Object recognition in rats can be measured as the difference in time spent exploring the familiar and the new object.
The abovementioned rodent model was used to assess the effects of the Isomer A on sub-chronic PCP-induced deficits in working memory using the novel object recognition (NOR) paradigm. The working hypothesis was that both acute and sub-chronic treatment with Isomer A will attenuate the selective working memory deficit induced by sub-chronic PCP as measured in the NOR test paradigm.
Rats are allowed to habituate to the empty test box and the behavioural test room environment for 1 hour on day 1. Prior to behavioural testing on day 2 rats are given a further 3 minutes habituation.
Following the 3 minute habituation period, the rats are given two 3 minute trials (T1 and T2) which are separated by a 1 minute inter-trial interval in the home cage during which the objects are changed.
In this trial, the animals are allowed to explore two identical objects (A1 and A2) for 3 minutes.
In this trial, the animals explore a familiar object (A) from T1 and a novel object (B) for 3 minutes. The familiar object presented during T2 is a duplicate of the object presented in T1 in order to avoid any olfactory trails.
The object exploration is defined by animals licking, sniffing or touching the object with the forepaws whilst sniffing, but not leaning against, turning around, standing or sitting on the object. The exploration time (s) of each object (A1, A2, A and B) in each trial are recorded using two stopwatches and the following factors are calculated: • Total exploration time of both objects in the acquisition trial (s). • Total exploration time of both objects in the retention trial (s). • Habituation of exploratory activity. The LMA includes the exploration time, as measured by the number of lines crossed, for both the trials. • Discrimination index, which is calculated as shown below;
(time spent exploring novel object−time spent exploring familiar object)÷total time spent in exploring the objects
Behaviour in all trials was recorded on video for subsequent blind scoring.
50 female hooded-Lister rats (Harlan, UK) were used as subjects for these studies. Rats were housed in groups of 5 under standard laboratory conditions under a 12 hr light:dark cycle, lights on at 0700 hr. All testing was carried out in the light phase. Food and water were freely provided. […]

[2] = system: female hooded-Lister rats; settings: risperidone; Grayson et al; cited from earlier work

For Cc1nc2n(c(=O)c1CCN1CCC(c3noc4cc(F)ccc34)CC1)CCCC2 [risperidone, reference compound], the “Discrimination index (DI)” value [1] is given as “improved” and the “Sub-chronic PCP-induced deficit in NOR paradigm” value [2] is given as “efficacy of risperidone to attenuate”.

Reference: patent US20110257220A1, “3,11 b-cis-Dihydrotetrabenazine for the Treatment of Schizophrenia and Other Psychoses” (CAMBRIDGE LABORATORIES (IRELAND) LIMITED, priority 2005, published 2011)
